From patent US9210927B2, “Pesticidal compositions and processes related thereto” (Dow AgroSciences LLC, priority 2013, dated 2015)

Assays:
[1] = system: CEW (Helicoverpa zea); test: Bioassays on Corn Earworm (CEW), 128-well diet tray assay; assay type: in vivo; settings: Helicoverpa zea, 168 h; percent mortality, second instar larvae, 50 μg/cm^2 on artificial diet, five to seven days, 25° C.; read-out: CEW Rating
Description: (§1) Bioassays on Beet Armyworm (“BAW”) and Corn Earworm (“CEW”) and Cabbage Looper (“CL”)
(§2) Certain molecules disclosed in this document were tested against BAW and CEW and CL using procedures described in the following examples. In the reporting of the results, the “BAW & CEW & CL Rating Table” was used (See Table Section).
Bioassays on CEW (Helicoverpa zea)
Bioassays on CEW were conducted using a 128-well diet tray assay. one to five second instar CEW larvae were placed in each well (3 mL) of the diet tray that had been previously filled with 1 mL of artificial diet to which 50 μg/cm^2 of the test compound (dissolved in 50 μL of 90:10 acetone-water mixture) had been applied (to each of eight wells) and then allowed to dry. Trays were covered with a clear self-adhesive cover, and held at 25° C., 14:10 light-dark for five to seven days. Percent mortality was recorded for the larvae in each well; activity in the eight wells was then averaged. The results are indicated in the table entitled “Table 3: Assay Results” (See Table Section).

[2] = system: BAW (Spodoptera exigua); test: Bioassays on Beet Armyworm (BAW), 128-well diet tray assay; assay type: in vivo; settings: Spodoptera exigua, 168 h, read-out: BAW Rating
Description: as §1, §2
Bioassays on BAW (Spodoptera exigua)
Bioassays on BAW were conducted using a 128-well diet tray assay. one to five second instar BAW larvae were placed in each well (3 mL) of the diet tray that had been previously filled with 1 mL of artificial diet to which 50 μg/cm^2 of the test compound (dissolved in 50 μL of 90:10 acetone-water mixture) had been applied (to each of eight wells) and then allowed to dry. Trays were covered with a clear self-adhesive cover, and held at 25° C., 14:10 light-dark for five to seven days. Percent mortality was recorded for the larvae in each well; activity in the eight wells was then averaged. The results are indicated in the table entitled “Table 3: Assay Results” (See Table Section).

Row | SMILES | pest or weed control at 50 µg/cm2 [1] | pest or weed control at 50 µg/cm2 [2]
1 | CC(=O)N1CCC(NC(=O)c2ccc(/C=C/C(c3cc(Cl)c(Cl)c(Cl)c3)C(F)(F)F)cc2Br)CC1 (centres unmarked) [AC103, (E)-N-(1-Acetylpiperidin-4-yl)-2-bromo-4-(4,4,4-trifluoro-3-(3,4,5-trichlorophenyl)but-1-en-1-yl)benzamide] | 50 to 100% | 50 to 100%
2 | N#CCN1CCC(NC(=O)c2ccc(/C=C/C(c3cc(Cl)c(Cl)c(Cl)c3)C(F)(F)F)cc2Br)CC1 (centres unmarked) [AC107] | 50 to 100% | 0 to 50%
3 | CONC(=O)CNC(=O)c1ccc(/C=C/C(c2cc(Cl)c(Cl)c(Cl)c2)C(F)(F)F)cc1Br (centres unmarked) [AC110] | 50 to 100% | 50 to 100%
4 | C=CCNC(=O)CNC(=O)c1ccc(/C=C/C(c2cc(Cl)c(Cl)c(Cl)c2)C(F)(F)F)cc1Br (centres unmarked) [AC111] | 50 to 100% | 50 to 100%
5 | O=C(NCCc1ccc(Cl)nc1)c1ccc(/C=C/C(c2cc(Cl)c(Cl)c(Cl)c2)C(F)(F)F)cc1Br (centres unmarked) [AC113] | 50 to 100% | 0 to 50%
6 | O=C(NC1CCNCC1)c1ccc(/C=C/C(c2cc(Cl)c(Cl)c(Cl)c2)C(F)(F)F)cc1Br (centres unmarked) [AC114, (E)-2-Bromo-N-(piperidin-4-yl)-4-(4,4,4-trifluoro-3-(3,4,5-trichlorophenyl)but-1-en-1-yl)benzamide] | 0 to 50% | 50 to 100%
7 | Cc1cc(/C=C/C(c2cc(Cl)cc(Cl)c2)C(F)(F)F)ccc1C(=S)NCc1ccc(Cl)nc1 (centres unmarked) [AC115, (E)-N-((6-Chloropyridin-3-yl)methyl)-4-(3-(3,5-dichlorophenyl)-4,4,4-trifluorobut-1-en-1-yl)-2-methylbenzothioamide] | 50 to 100% | 50 to 100%
8 | O=C(NC1CCc2cc(/C=C/C(c3cc(Cl)c(Cl)c(Cl)c3)C(F)(F)F)ccc21)C1CC1 (centres unmarked) [BC6] | 50 to 100% | 50 to 100%
9 | O=C(NC1CCCc2cc(/C=C/C(c3cc(Cl)c(Cl)c(Cl)c3)C(F)(F)F)ccc21)C1CC1 (centres unmarked) [BC7] | 50 to 100% | 50 to 100%
10 | O=C(Cc1ccc(Cl)nc1)NC1CCc2cc(/C=C/C(c3cc(Cl)c(F)c(Cl)c3)C(F)(F)F)ccc21 (centres unmarked) [BC9] | 50 to 100% | 50 to 100%
11 | O=C(CC(F)(F)F)NCC(=O)n1ccc2cc(/C=C/C(c3cc(Cl)c(F)c(Cl)c3)C(F)(F)F)ccc21 (centres unmarked) [BC13, (E)-N-(2-(5-(3-(3,5-Dichloro-4-fluorophenyl)-4,4,4-trifluorobut-1-en-1-yl)-1H-indol-1-yl)-2-oxoethyl)-3,3,3-trifluoropropanamide] | 50 to 100% | 50 to 100%
12 | O=C(CC(F)(F)F)NCc1ccc(/C=C/C(c2cc(Cl)cc(Cl)c2)C(F)(F)F)cc1 (centres unmarked) [CC3] | 50 to 100% | 50 to 100%
13 | O=C(NCc1ccc(/C=C/C(c2cc(Cl)cc(Cl)c2)C(F)(F)F)cc1Cl)C1CC1 (centres unmarked) [CC8] | 50 to 100% | 50 to 100%
14 | FC(F)(F)C(/C=C/c1ccc(CNC(=S)C2CC2)c(Cl)c1)c1cc(Cl)c(Cl)c(Cl)c1 (centres unmarked) [CC20] | 50 to 100% | 50 to 100%
15 | O=C(NCc1ccc(/C=C/C(c2cc(Cl)cc(Cl)c2)C(F)(F)F)cc1C(F)(F)F)C1CC1 (centres unmarked) [CC21] | 50 to 100% | 50 to 100%
16 | O=C(CC(F)(F)F)NCc1ccc(/C=C/C(c2cc(Cl)c(Cl)c(Cl)c2)C(F)(F)F)cc1C(F)(F)F (centres unmarked) [CC24] | 50 to 100% | 50 to 100%
17 | O=C(CC(F)(F)F)NCc1ccc(/C=C/C(c2cc(Cl)c(Cl)c(Cl)c2)C(F)(F)F)cc1F (centres unmarked) [CC27] | 50 to 100% | 50 to 100%
18 | O=C(NCc1ccc(/C=C/C(c2cc(Cl)c(Cl)c(Cl)c2)C(F)(F)F)cc1F)C1CC1 (centres unmarked) [CC28] | 50 to 100% | 50 to 100%
19 | CS(=O)(=O)CCC(=O)NCc1ccc(/C=C/C(c2cc(Cl)c(Cl)c(Cl)c2)C(F)(F)F)cc1Cl (centres unmarked) [CC30, (E)-N-(2-Chloro-4-(4,4,4-trifluoro-3-(3,4,5-trichlorophenyl)but-1-en-1-yl)benzyl)-3-(methylsulfonyl)propanamide] | 50 to 100% | 50 to 100%

Row | SMILES | pest or weed control at 50 µg/cm2 [1] | pest or weed control at 50 µg/cm2 [2]
20 | CN(C)C(=O)NCc1ccc(/C=C/C(c2cc(Cl)c(Cl)c(Cl)c2)C(F)(F)F)cc1Cl (centres unmarked) [CC36, (E)-3-(2-Chloro-4-(4,4,4-trifluoro-3-(3,4,5-trichlorophenyl)but-1-en-1-yl)benzyl)-1,1-dimethylurea] | 50 to 100% | 50 to 100%
21 | CCNC(=S)NCc1ccc(/C=C/C(c2cc(Cl)c(Cl)c(Cl)c2)C(F)(F)F)cc1Cl (centres unmarked) [CC37, (E)-1-(2-Chloro-4-(4,4,4-trifluoro-3-(3,4,5-trichlorophenyl)but-1-en-1-yl)benzyl)-3-ethylthiourea] | 50 to 100% | 50 to 100%
22 | C=CCNC(=S)NCc1ccc(/C=C/C(c2cc(Cl)c(Cl)c(Cl)c2)C(F)(F)F)cc1Cl (centres unmarked) [CC38] | 50 to 100% | 50 to 100%
23 | O=C(NCc1ncc(/C=C/C(c2cc(Cl)c(Cl)c(Cl)c2)C(F)(F)F)cc1Cl)C1CC1 (centres unmarked) [CC45] | 50 to 100% | 50 to 100%
24 | O=C(NNc1ccc(/C=C/C(c2cc(Cl)c(Cl)c(Cl)c2)C(F)(F)F)cc1)C1CC1 (centres unmarked) [CC50, (E)-N′-(4-(4,4,4-Trifluoro-3-(3,4,5-trichlorophenyl)but-1-en-1-yl)phenyl)cyclopropanecarbohydrazide] | 50 to 100% | 50 to 100%
25 | O=C(CC(F)(F)F)NNc1ccc(/C=C/C(c2cc(Cl)c(Cl)c(Cl)c2)C(F)(F)F)cc1 (centres unmarked) [CC51] | 50 to 100% | 50 to 100%
26 | O=C(CC(F)(F)F)NCc1ccc(/C=C\C(c2cc(Cl)c(Cl)c(Cl)c2)C(F)(F)F)cc1 (centres unmarked) [CC54, (Z)-3,3,3-Trifluoro-N-(4-(4,4,4-trifluoro-3-(3,4,5-trichlorophenyl)but-1-en-1-yl)benzyl)propanamide] | 50 to 100% | 50 to 100%
27 | FC(F)(F)C(/C=C/c1ccc(-n2cncn2)cc1)c1cc(Cl)cc(Cl)c1 (centres unmarked) [DC1, (E)-1-(4-(3-(3,5-Dichlorophenyl)-4,4,4-trifluorobut-1-en-1-yl)phenyl)-1H-1,2,4-triazole] | 50 to 100% | 50 to 100%
28 | FC(F)(F)c1cc(C(/C=C/c2ccc(-n3cncn3)cc2)C(F)(F)F)cc(C(F)(F)F)c1 (centres unmarked) [DC16] | 50 to 100% | 50 to 100%
29 | N#Cc1cc(/C=C/C(c2cc(Cl)cc(C(F)(F)F)c2)C(F)(F)F)ccc1-n1cncn1 (centres unmarked) [DC33] | 50 to 100% | 50 to 100%
30 | N#Cc1cc(/C=C/C(c2cc(Cl)cc(Cl)c2)C(F)(F)F)ccc1-n1cnc([N+](=O)[O-])n1 (centres unmarked) [DC37] | 50 to 100% | 50 to 100%
31 | N#Cc1cc(/C=C/C(c2cc(Cl)cc(Cl)c2)C(F)(F)F)ccc1-n1cnc(N)n1 (centres unmarked) [DC38] | 50 to 100% | 50 to 100%
32 | CC(=O)Nc1ncn(-c2ccc(/C=C/C(c3cc(Cl)cc(Cl)c3)C(F)(F)F)cc2C#N)n1 (centres unmarked) [DC39] | 50 to 100% | 50 to 100%
33 | N#Cc1cc(/C=C/C(c2cc(Cl)c(Cl)c(Cl)c2)C(F)(F)F)ccc1-n1cnc([N+](=O)[O-])n1 (centres unmarked) [DC40, (E)-2-(3-Nitro-1H-1,2,4-triazol-1-yl)-5-(4,4,4-trifluoro-3-(3,4,5-trichlorophenyl)but-1-en-1-yl)benzonitrile] | 50 to 100% | 50 to 100%
34 | N#Cc1cc(/C=C/C(c2cc(Cl)c(Cl)c(Cl)c2)C(F)(F)F)ccc1-n1cnc(N)n1 (centres unmarked) [DC41, (E)-2-(3-Amino-1H-1,2,4-triazol-1-yl)-5-(4,4,4-trifluoro-3-(3,4,5-trichlorophenyl)but-1-en-1-yl)benzonitrile] | 50 to 100% | 50 to 100%
35 | N#Cc1cc(/C=C/C(c2cc(Cl)c(Cl)c(Cl)c2)C(F)(F)F)ccc1-n1cnc(N(C(=O)C2CC2)C(=O)C2CC2)n1 (centres unmarked) [DC42, (E)-N-(1-(2-Cyano-4-(4,4,4-trifluoro-3-(3,4,5-trichlorophenyl)but-1-en-1-yl)phenyl)-1H-1,2,4-triazol-3-yl)-N-(cyclopropanecarbonyl)cyclopropanecarboxamide] | 50 to 100% | 50 to 100%
36 | N#Cc1cc(/C=C/C(c2cc(Cl)c(Cl)c(Cl)c2)C(F)(F)F)ccc1-n1cnc(NC(=O)C2CC2)n1 (centres unmarked) [DC43, (E)-N-(1-(2-Cyano-4-(4,4,4-trifluoro-3-(3,4,5-trichlorophenyl)but-1-en-1-yl)phenyl)-1H-1,2,4-triazol-3-yl)cyclopropanecarboxamide] | 50 to 100% | 50 to 100%
37 | Cc1cc(/C=C/C(c2cc(Cl)cc(Cl)c2)C(F)(F)F)cc(C#N)c1-n1cncn1 (centres unmarked) [DC44] | 50 to 100% | 50 to 100%
